Data from paper PMC7496275, “Pentathiepins: A Novel Class of Glutathione Peroxidase 1 Inhibitors that Induce Oxidative Stress, Loss of Mitochondrial Membrane Potential and Apoptosis in Human Cancer Cells” (Chemmedchem, 2020).

Test system: HAP-1 cells
Assay: Fluorescence microscopy of mitochondrial membrane potential (JC-1)
Type: cell-based, human
Conditions: positive control, 2.5 μg/L, 1 h
From the text: To determine if 4 influences the mitochondrial membrane potential (MMP), the fluorescent dye JC‐1 was used together with fluorescence microscopy.
Fluorescence microscopy of mitochondrial membrane potential: To detect possible effects of 5 on the mitochondrial membrane potential (MMP) of HAP‐1 cells the fluorescent dye JC‐1 was used.39 JC‐1 accumulates into living cells and is present in monomers in the cytosol. It can also cross the membrane of active mitochondria, were aggregates form. When excited at λ=488 nm, JC‐1 monomers give a green fluorescence while JC‐1 aggregates show red fluorescence. […] Briefly, 10^5 cells in 500 μL medium were seeded out into a chamber of a four‐well chamber‐slide and allowed to attach for 24 h. After incubation with 4 at various concentrations, cells were exposed to the JC‐1 solution for 15 min according to the manufacturer's protocol (BD Bioscience, USA). Cells on the slides were then mounted and examined with a Leica DMi8 fluorescence microscope (Leica, Germany), at λ ex/em=488/512–542 nm for JC‐1 monomers and λ ex/em=488/565–605 nm for agglomerates.

N#CC(C#N)=NNc1ccc(OC(F)(F)F)cc1 [FCCP, carbonyl cyanide‐p‐trifluoromethoxyphenylhydrazone]
mitochondrial membrane potential (MMP): complete loss of MMP
